Results as given in the supplement of paper PMC10307832.

How the values were obtained:
Assay in all cases: relative viability (nuclei count vs DMSO), 5 days (fraction); higher = more cells survive
Dovitinib + Linsitinib = compound: CN1CCN(c2ccc3nc(-c4c(N)c5c(F)cccc5[nH]c4=O)[nH]c3c2)CC1 [Dovitinib] + C[C@]1(O)C[C@@H](c2nc(-c3ccc4ccc(-c5ccccc5)nc4c3)c3c(N)nccn32)C1 [Linsitinib] (partner 1 µM)
Procedure, shortened: (§1)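 Relative viability divides the nuclei count in treated wells by that in vehicle wells. Lung cancer cell lines were seeded in 1536-well plates, dosed by pin tool the next day, and fixed and stained after 5 days in one step with final 0.05% Triton X-100, 1% formaldehyde and 1 ug/ml Hoechst. Dosing was a single drug or a fixed anchor-drug dose plus five library-drug doses (not always all listed) in √10 steps, and values are medians of duplicate plates imaged at 4×.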

Dovitinib + Pemetrexed = compound: CN1CCN(c2ccc3nc(-c4c(N)c5c(F)cccc5[nH]c4=O)[nH]c3c2)CC1 [Dovitinib] + Nc1nc2[nH]cc(CCc3ccc(C(=O)N[C@@H](CCC(=O)O)C(=O)O)cc3)c2c(=O)[nH]1 [Pemetrexed] (partner 0.2 µM)
Procedure, shortened: as §1

Dovitinib + Vorinostat = compound: CN1CCN(c2ccc3nc(-c4c(N)c5c(F)cccc5[nH]c4=O)[nH]c3c2)CC1 [Dovitinib] + O=C(CCCCCCC(=O)Nc1ccccc1)NO [Vorinostat] (partner 1 µM)
Procedure, shortened: as §1

Dovitinib + Olaparib = compound: CN1CCN(c2ccc3nc(-c4c(N)c5c(F)cccc5[nH]c4=O)[nH]c3c2)CC1 [Dovitinib] + O=C(c1cc(Cc2n[nH]c(=O)c3ccccc23)ccc1F)N1CCN(C(=O)C2CC2)CC1 [Olaparib] (partner 8 µM)
Procedure, shortened: as §1

Cell Line | relative viability (Dovitinib + Linsitinib; first compound 0.02 µM) | relative viability (Dovitinib + Linsitinib; first compound 0.06325 µM) | relative viability (Dovitinib + Linsitinib; first compound 0.2 µM) | relative viability (Dovitinib + Linsitinib; first compound 0.6325 µM) | relative viability (Dovitinib + Linsitinib; first compound 2 µM) | relative viability (Dovitinib + Pemetrexed; first compound 0.02 µM) | relative viability (Dovitinib + Pemetrexed; first compound 0.06325 µM) | relative viability (Dovitinib + Pemetrexed; first compound 0.2 µM) | relative viability (Dovitinib + Pemetrexed; first compound 0.6325 µM) | relative viability (Dovitinib + Pemetrexed; first compound 2 µM) | relative viability (Dovitinib + Vorinostat; first compound 0.02 µM) | relative viability (Dovitinib + Vorinostat; first compound 0.06325 µM) | relative viability (Dovitinib + Vorinostat; first compound 0.2 µM) | relative viability (Dovitinib + Vorinostat; first compound 0.6325 µM) | relative viability (Dovitinib + Vorinostat; first compound 2 µM) | relative viability (Dovitinib + Olaparib; first compound 0.02 µM) | relative viability (Dovitinib + Olaparib; first compound 0.06325 µM) | relative viability (Dovitinib + Olaparib; first compound 0.2 µM) | relative viability (Dovitinib + Olaparib; first compound 0.6325 µM) | relative viability (Dovitinib + Olaparib; first compound 2 µM)
LCLC-103H | 1.09 | 0.988 | 1.03 | 1.08 | 1.04 | 0.494 | 0.457 | 0.475 | 0.434 | 0.459 | 0.731 | 0.746 | 0.756 | 0.872 | 0.8 | 0.765 | 0.763 | 0.751 | 0.759 | 0.718
LK-2 | 0.688 | 0.604 | 0.484 | 0.608 | 0.565 | 0.309 | 0.274 | 0.287 | 0.342 | 0.265 | 0.262 | 0.403 | 0.373 | 0.373 | 0.364 | 0.738 | 0.818 | 0.676 | 0.935 | 0.739
LOU-NH91 | 0.984 | 0.915 | 0.968 | 1 | 1.05 | 0.368 | 0.386 | 0.404 | 0.363 | 0.358 | 0.961 | 0.846 | 0.919 | 0.984 | 0.94 | 0.94 | 0.922 | 0.93 | 0.907 | 0.948
LU99A | 0.482 | 0.571 | 0.521 | 0.515 | 0.506 | 0.169 | 0.304 | 0.165 | 0.217 | 0.18 | 0.456 | 0.555 | 0.46 | 0.615 | 0.624 | 0.256 | 0.279 | 0.275 | 0.276 | 0.281
LXF-289 | 0.907 | 0.942 | 0.935 | 0.939 | 0.878 | 0.883 | 0.893 | 0.864 | 0.962 | 0.894 | 0.781 | 0.836 | 0.807 | 0.847 | 0.746 | 0.974 | 1.08 | 1.07 | 1.1 | 0.976
NCI-H23 | 0.546 | 0.664 | 0.623 | 0.57 | 0.506 | 0.79 | 0.592 | 0.623 | 0.674 | 0.658 | 0.551 | 0.699 | 0.616 | 0.735 | 0.643 | 0.271 | 0.314 | 0.333 | 0.298 | 0.338
